Assay results: US20100331310A1, “BICYCLOAMINE DERIVATIVES” (priority 2008, published 2010)
Where a name gives a salt, the structure may show the parent alone.

Assays:
[1] = tested on: rats that exhibited ectopic firing (left saphenous nerve); assay: Suppression of ectopic firing in rats with cut saphenous nerve; type: in vivo; settings: rat, urethane anesthesia, administration via catheter in right cervical vein; number of firings every 10 seconds; read-out: Suppressing activity on ectopic firing, ED50
Procedure: (1) The suppressing effect on ectopic firing was evaluated by the following method, with reference to Burchiel, K J., Exp. Neurol., 102, 249-253 (1988). […] The left saphenous nerve was exposed under urethane anesthesia (1 g/kg body weight), and an area approximately 1 cm adjacent to the cutting site was removed from the surrounding tissue. A catheter was inserted into the right cervical vein for administration of the compound. (3) The removed nerve was placed on a platinum hook electrode and covered with liquid paraffin to avoid drying of the nerve. The electrode was connected to a microelectrode amp, and the change in potential was recorded on a computer from an oscilloscope, via an A/D converter. The recorded nerve firing was evaluated based on the number of firings every 10 seconds, using analysis software (AcqKnowledge).

human Nav1.8 = target: T1, human Nav1.8 (Homo sapiens, UniProt Q9Y5Y9); assay: Membrane potential increase-inhibitory action on TTX-resistant Na channels in cells expressing human Nav1.8 gene (deltamethrin stimulation); type: cell-based
T1 construct: expressed in transfected cells
T1 sequence (Q9Y5Y9 whole entry): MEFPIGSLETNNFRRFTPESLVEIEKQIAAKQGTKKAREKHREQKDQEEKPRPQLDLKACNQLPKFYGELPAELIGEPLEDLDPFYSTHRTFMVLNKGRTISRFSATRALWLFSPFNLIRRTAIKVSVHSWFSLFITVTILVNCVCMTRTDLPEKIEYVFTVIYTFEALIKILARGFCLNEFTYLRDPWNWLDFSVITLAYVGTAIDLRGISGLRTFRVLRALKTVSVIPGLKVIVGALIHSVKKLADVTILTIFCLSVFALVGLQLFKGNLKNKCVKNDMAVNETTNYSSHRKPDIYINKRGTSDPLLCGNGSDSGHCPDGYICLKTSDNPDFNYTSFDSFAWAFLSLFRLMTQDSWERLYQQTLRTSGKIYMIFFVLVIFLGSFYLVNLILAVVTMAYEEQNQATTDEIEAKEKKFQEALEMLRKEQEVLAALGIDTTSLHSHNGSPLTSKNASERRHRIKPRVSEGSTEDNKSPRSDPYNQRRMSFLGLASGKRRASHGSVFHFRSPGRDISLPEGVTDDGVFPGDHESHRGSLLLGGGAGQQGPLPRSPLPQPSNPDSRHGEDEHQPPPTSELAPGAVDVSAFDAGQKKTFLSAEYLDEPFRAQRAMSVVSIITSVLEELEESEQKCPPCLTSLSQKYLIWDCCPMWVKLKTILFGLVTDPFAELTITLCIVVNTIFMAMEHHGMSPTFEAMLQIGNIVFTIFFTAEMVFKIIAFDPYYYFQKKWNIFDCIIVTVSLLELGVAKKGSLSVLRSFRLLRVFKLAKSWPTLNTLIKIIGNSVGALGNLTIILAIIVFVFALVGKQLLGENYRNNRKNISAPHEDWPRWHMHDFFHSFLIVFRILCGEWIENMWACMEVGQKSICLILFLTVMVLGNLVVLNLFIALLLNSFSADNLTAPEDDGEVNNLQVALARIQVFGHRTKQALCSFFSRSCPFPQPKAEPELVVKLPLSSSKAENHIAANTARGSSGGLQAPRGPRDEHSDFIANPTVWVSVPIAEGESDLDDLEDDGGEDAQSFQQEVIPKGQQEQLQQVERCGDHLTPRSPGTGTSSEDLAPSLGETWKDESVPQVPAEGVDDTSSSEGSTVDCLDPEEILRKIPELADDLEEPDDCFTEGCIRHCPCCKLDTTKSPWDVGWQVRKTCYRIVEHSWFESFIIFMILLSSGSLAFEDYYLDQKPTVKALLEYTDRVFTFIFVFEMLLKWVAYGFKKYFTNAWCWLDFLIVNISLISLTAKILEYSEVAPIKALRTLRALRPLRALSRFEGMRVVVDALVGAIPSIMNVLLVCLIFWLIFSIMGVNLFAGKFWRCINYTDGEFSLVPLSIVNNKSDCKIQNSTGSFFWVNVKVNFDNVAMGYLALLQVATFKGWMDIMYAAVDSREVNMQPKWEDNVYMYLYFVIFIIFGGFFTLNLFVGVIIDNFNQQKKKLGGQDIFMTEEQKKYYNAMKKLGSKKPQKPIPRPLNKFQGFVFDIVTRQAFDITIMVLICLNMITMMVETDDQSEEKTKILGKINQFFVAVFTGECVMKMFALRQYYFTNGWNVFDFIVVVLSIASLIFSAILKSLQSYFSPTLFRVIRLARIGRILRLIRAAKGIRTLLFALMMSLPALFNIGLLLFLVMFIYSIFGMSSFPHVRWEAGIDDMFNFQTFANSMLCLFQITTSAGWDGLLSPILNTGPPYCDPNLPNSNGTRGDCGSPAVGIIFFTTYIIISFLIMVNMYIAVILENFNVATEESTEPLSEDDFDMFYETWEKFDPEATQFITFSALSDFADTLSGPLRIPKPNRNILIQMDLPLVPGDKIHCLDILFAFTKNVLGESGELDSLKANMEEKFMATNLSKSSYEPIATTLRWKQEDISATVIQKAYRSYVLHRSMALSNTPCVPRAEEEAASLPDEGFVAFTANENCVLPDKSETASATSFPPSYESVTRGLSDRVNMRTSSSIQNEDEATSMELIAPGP
Procedure: A cell line expressing human Nav1.8 gene was used to evaluate the pharmacological effects of compounds of the invention.
1. A membrane potential-sensitive dye containing TTX (final concentration: 0.25 μM) was added to cells expressing human Nav1.8, prior to incubation at 37° C. for 30-60 minutes. 2. The test compound was added to the cells, and the mixture was stationed for 15-30 minutes at room temperature while shielded from light. 3. Deltamethrin (final concentration: 50 μM), a Nav1.8 channel stimulant, was added, and the change in fluorescence intensity due to increased membrane potential was measured.
The Nav1.8 channel inhibition of the test compound was determined by the following equation.

ectopic firing = settings: as described in Patent document 1; cited from earlier work
[2] = tested on: sodium channels in cultured rat hippocampus; settings: cited from earlier work

Work on `COC(CN1[C@@H]2CC[C@H]1C[C@@H](OCc1ccccc1F)C2)Cn1nc2ccccn2c1=O` (stereo partly drawn) [Example 157, (Endo)-2-{3-[3-(2-fluorobenzyloxy)-8-azabicyclo[3.2.1]oct-8-yl]-2-methoxypropyl}-2H-[1,2,4]triazolo[4,3-a]pyridin-3-one] yielded an ED50 [1] of 0.28 mg/kg and an IC50 (human Nav1.8) of 1.2 µM.
With `CN1CCn2c1nn(CC(F)CN1[C@@H]3CC[C@H]1C[C@@H](OCc1ccc(F)cc1)C3)c2=O` (stereo partly drawn) [Example 112, (Endo)-2-{2-fluoro-3-[3-(4-fluorobenzyloxy)-8-azabicyclo[3.2.1]oct-8-yl]propyl}-7-methyl-2,5,6,7-tetrahydroimidazo[2,1-c][1,2,4]triazol-3-one] the ED50 [1] was 0.29 mg/kg and the IC50 (human Nav1.8) was 12 µM.
Molecule `Cc1nn(C[C@H](F)CN2C3CCC2CC(OCc2ccccc2CF)C3)c(=O)n1C` (stereo partly drawn) [Example 6, (Endo)-2-{(R)-2-fluoro-3-[3-(2-fluoromethylbenzyloxy)-8-azabicyclo[3.2.1]oct-8-yl]propyl}-4,5-dimethyl-2,4-dihydro[1,2,4]triazol-3-one] has an ED50 [1] of 0.27 mg/kg and an IC50 (human Nav1.8) of 5.2 µM.
For `Cc1cccc(COC2CC3CCC(C2)N3CC(F)Cn2nc(N(C)C)n(C)c2=O)c1` (stereo not drawn) [Example 25, (Endo)-5-dimethylamino-2-{2-fluoro-3-[3-(3-methylbenzyloxy)-8-azabicyclo[3.2.1]oct-8-yl]propyl}-4-methyl-2,4-dihydro[1,2,4]triazol-3-one], the ED50 [1] was under 0.1 mg/kg and the IC50 (human Nav1.8) was 0.71 µM.
With `Cc1nc(=O)n(C[C@@H](F)CN2C3CCC2CC(OCc2ccc(F)cc2)C3)c(=O)n1C` (stereo partly drawn) [Example 12, (Endo)-3-{(S)-2-fluoro-3-[3-(4-fluorobenzyloxy)-8-azabicyclo[3.2.1]oct-8-yl]propyl}-1,6-dimethyl-1H-[1,3,5]triazine-2,4-dione oxalate] the ED50 [1] was 0.28 mg/kg and the IC50 (human Nav1.8) was 8.7 µM.
Work on `Cc1nn(C[C@H](F)CN2[C@@H]3CC[C@H]2C[C@@H](OCc2ccccc2F)C3)c(=O)n1C` [Example 4, (Endo)-2-{(R)-2-fluoro-3-[3-(2-fluorobenzyloxy)-8-azabicyclo[3.2.1]oct-8-yl]propyl}-4,5-dimethyl-2,4-dihydro[1,2,4]triazol-3-one] yielded an ED50 [1] of 0.23 mg/kg and an IC50 (human Nav1.8) of 5 µM.
For `O=c1nc2n(c(=O)n1CCCN1[C@@H]3CC[C@H]1C[C@@H](CCc1ccccc1F)C3)CCCC2` [Example 129, (Endo)-3-(3-{3-[2-(2-fluorophenyl)ethyl)-8-azabicyclo[3.2.1]oct-8-yl}propyl]-6,7,8,9-tetrahydropyrido[1,2-a][1,3,5]triazine-2,4-dione oxalate], the ED50 [1] was 0.13 mg/kg and the IC50 (human Nav1.8) was 9.8 µM.
`O=c1n(CCCN2[C@@H]3CC[C@H]2C[C@@H](CCc2ccccc2F)C3)nc2ccccn12` [Example 149, (Endo)-2-(3-{3-[2-(2-fluorophenyl)ethyl)-8-azabicyclo[3.2.1]oct-8-yl}propyl]-2H-[1,2,4]triazolo[4,3-a]pyridin-3-one] gave an ED50 [1] of 0.15 mg/kg and an IC50 (human Nav1.8) of 0.28 µM.
Work on `O=c1n(CCCN2[C@@H]3CC[C@H]2C[C@@H](OCc2ccccc2F)C3)nc2n1CCS2` [Example 116, (Endo)-2-{3-[3-(2-fluorobenzyloxy)-8-azabicyclo[3.2.1]oct-8-yl]propyl}-5,6-dihydro-2H-thiazolo[2,3-c][1,2,4]triazol-3-one] yielded an ED50 [1] of 0.15 mg/kg and an IC50 (human Nav1.8) of 5.8 µM.
`O=c1n(CCCN2[C@@H]3CC[C@H]2C[C@@H](OCc2ccccc2F)C3)nc2ccccn12` [Example 145, (Endo)-2-{3-[3-(2-fluorobenzyloxy)-8-azabicyclo[3.2.1]oct-8-yl]propyl}-2H-[1,2,4]triazolo[4,3-a]pyridin-3-one] gave an ED50 [1] of 0.28 mg/kg and an IC50 (human Nav1.8) of 0.53 µM.
Work on `Cc1cc(-n2c(C)nn(CC(O)CN3[C@@H]4CC[C@H]3C[C@@H](OCc3ccccc3F)C4)c2=O)on1` (stereo partly drawn) [Example 47, (Endo)-2-{3-[3-(2-fluorobenzyloxy)-8-azabicyclo[3.2.1]oct-8-yl]-2-hydroxypropyl}-5-methyl-4-(3-methyl-isoxazol-5-yl)-2,4-dihydro[1,2,4]triazol-3-one oxalate] yielded an ED50 [1] of 0.18 mg/kg and an IC50 (human Nav1.8) of 1.3 µM.
Molecule `Cn1ccn2c(=O)n(CCCN3[C@@H]4CC[C@H]3C[C@@H](OCc3ccccc3F)C4)c(=O)nc12` [Example 174, (Endo)-3-{3-[3-(2-fluorobenzyloxy)-8-azabicyclo[3.2.1]oct-8-yl]propyl}-8-methyl-8H-imidazo[1,2-a][1,3,5]triazine-2,4-dione] has an ED50 [1] of 0.21 mg/kg and an IC50 (human Nav1.8) of 0.89 µM.
Molecule `Cc1nc(C)n(C)c(=O)c1CCN1[C@@H]2CC[C@H]1C[C@@H](OCc1ccccc1F)C2` [Example 184, (Endo)-5-{2-[3-(2-fluorobenzyloxy)-8-azabicyclo[3.2.1]oct-8-yl]ethyl}-2,3,6-trimethyl-3H-pyrimidin-4-one oxalate] has an ED50 [1] of 0.19 mg/kg and an IC50 (human Nav1.8) of 7.6 µM.
For `O=c1n(-c2ccccc2)cnn1CCCN1[C@@H]2CC[C@H]1C[C@@H](OCc1ccccc1F)C2` [Example 58, (Endo)-2-{3-[3-(2-fluorobenzyloxy)-8-azabicyclo[3.2.1]oct-8-yl]propyl}-4-phenyl-2,4-dihydro[1,2,4]triazol-3-one], the ED50 [1] was 0.18 mg/kg and the IC50 (human Nav1.8) was 0.13 µM.
In the case of `O=c1[nH]cccc1CN1CC2CCCC(C1)C2/C=C/c1ccccc1F` (stereo not shown), the “Inhibitory activity against ectopic firing” value (ectopic firing) is listed as “inadequate” and the “Inhibitory activity against sodium channels” value [2] is listed as “has an inhibitory activity”.
Work on `Cc1nn(C[C@H](F)CN2C3CCC2CC(OCc2cccc(F)c2)C3)c(=O)n1C` (stereo partly drawn) [Example 1, (Endo)-2-{(R)-2-fluoro-3-[3-(3-fluorobenzyloxy)-8-azabicyclo[3.2.1]oct-8-yl]propyl}-4,5-dimethyl-2,4-dihydro[1,2,4]triazol-3-one] yielded an ED50 [1] of 0.14 mg/kg and an IC50 (human Nav1.8) of 3.2 µM.
For `Cc1nc2ccccn2c(=O)c1CCN1[C@@H]2CC[C@H]1C[C@@H](OCc1ccccc1F)C2` [Example 179, (Endo)-3-{2-[3-(2-fluorobenzyloxy)-8-azabicyclo[3.2.1]oct-8-yl]ethyl}-2-methylpyrido[1,2-a]pyrimidin-4-one oxalate], the ED50 [1] was 0.14 mg/kg and the IC50 (human Nav1.8) was 8.7 µM.
